The values that follow are results of earlier work, collected in patent publication US7648957B2, “Nutritional and therapeutic composition of an insulin sensitizer and a peptide fraction” (DSM IP Assets B.V., priority 2002, dated 2010).

The conditions of series [1]: very high glucose levels.
In series [2] the test system is cell's response to insulin. The note with it: on administration of the chemical, estimated.

Take methylhydroxy chalcone polymer [MHCP]: in series [1], the “glucose levels in diabetic mice” value is “could normalise very high glucose levels”. Besides, the “rise of sensitivity to insulin” value in series [2] was “around 20 fold”.
